Reference: PubChem BioAssay AID720669 (NMMLSC, 2013)
The source made the active and inactive calls.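 How the source made its calls: active means visibly stopped the calcineurin reporter band on a blot from moving down to a smaller size, judged by eye; inactive means reporter band movement visibly unaltered.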

system: calcineurin (human, NFAT-based CaNAR1 reporter dephosphorylation); assay: inhibitors of CaNAR1 reporter dephosphorylation – TALL-104 cells, western blot, CherryPick01, mechanism study for lytic granule exocytosis inhibitor project (AID 720669); conditions: CaNAR1 dephosphorylation shift, at 12 µM, hits give high values

Structure (SMILES) | inhibition
CC1COCC(C)N1C1=C(Cl)C(=O)c2ccccc2C1=O (configuration not stated) | 100%
COC(=O)c1c(NC(=O)c2nc3ccccc3s2)sc2c1CC(C)(C)NC2(C)C | 0% (inactive)
COc1ccc(N2C(=O)CC(Sc3nnc(-c4ccccc4)o3)C2=O)cc1 (configuration not stated) | 0% (inactive)
O=C(CN1C(=O)/C(=C\c2cccc(Br)c2)Oc2ccccc21)NCCCN1CCOCC1 | 0% (inactive)
O=C(Cn1sc2ccccc2c1=O)Nc1ccc(F)cc1 | 0% (inactive)
CCCCC[C@@H](C)N1C[C@@H](COCc2ccccc2)Oc2cc(N3CC[C@@H](N(C)C)C3)ccc2S1(=O)=O | 0% (inactive)
CC1=NOC(=O)/C1=C/c1ccc(-c2ccc(Cl)cc2)o1 | 0% (inactive)
O=C(Cn1sc2ccccc2c1=O)NC12CC3CC(CC(C3)C1)C2 | 0% (inactive)
O=c1c2ccc(F)cc2sn1-c1ccccc1 | 0% (inactive)
COc1ccccc1CNc1nc(NCc2ccc(C(C)C)cc2)c2sccc2n1 | 0% (inactive)
COc1ccc(-n2sc3ccccc3c2=O)cc1 | 0% (inactive)
CN(C)CCNC(=O)c1ccc(-c2cn3c(-c4ccc(Oc5ccccc5)cc4)cnc3cn2)cc1 | 0% (inactive)
O=CNc1cc(-c2ccsc2)cn2c(-c3ccccc3)cnc12 | 0% (inactive)
CCN(CC)CCCNc1ccc(-c2nnc(-c3ccc(OCC(C)C)cc3)o2)cn1 | 0% (inactive)
CC(C)(c1ccccc1)c1ccc(OCC(O)CNC2CCN(Cc3ccccc3)CC2)cc1 (configuration not stated) | 0% (inactive)
Cc1ccc(S(=O)(=O)n2ccc3c(OCCOCCNCc4ccc(F)cc4)cccc32)cc1 | 0% (inactive)
CCCCC[C@@H](C)N1C[C@H](COCc2ccccc2)Oc2cc(N3CC[C@@H](N(C)C)C3)ccc2S1(=O)=O | 0% (inactive)
COc1ccc(-c2cc(NC=O)c3ncc(-c4ccccc4)n3c2)cc1OC | 0% (inactive)
O=c1c2ccccc2sn1-c1ccccc1 | 0% (inactive)
COc1ccc(-c2cc(NC=O)c3ncc(-c4cccc(OC)c4)n3c2)cc1 | 0% (inactive)
CCCCC[C@@H](C)N1C[C@@H](COCc2ccccc2)Oc2cc(N3CC[C@H](N(C)C)C3)ccc2S1(=O)=O | 0% (inactive)
Cc1ccc(Nc2nc(NCc3ccco3)c3ccccc3n2)cc1 | 0% (inactive)
